Test results as given in patent US10131669B2, “Pyrazolopyrimidine compounds” (Pfizer Inc., priority 2014, dated 2018).

Experiments:
Assay type in all cases: biochemical
[1] = biological target: T1, Human PDE4A3 (Homo sapiens, UniProt P27815); assay: PDE4A3 Scintillation Proximity Assay (SPA), inhibition of enzyme activity; conditions: geometric mean of 2-7 determinations unless otherwise indicated (b: ≥8 determinations; c: single determination), 1 μM cAMP, 30 min at 25° C., read-out: Human PDE4A FL
T1 construct: His6 (N); FLAG (C); made in house; host or cells: insect cells (baculovirus, pFastBac)
T1 sequence (P27815 2-825 isoform P27815-6): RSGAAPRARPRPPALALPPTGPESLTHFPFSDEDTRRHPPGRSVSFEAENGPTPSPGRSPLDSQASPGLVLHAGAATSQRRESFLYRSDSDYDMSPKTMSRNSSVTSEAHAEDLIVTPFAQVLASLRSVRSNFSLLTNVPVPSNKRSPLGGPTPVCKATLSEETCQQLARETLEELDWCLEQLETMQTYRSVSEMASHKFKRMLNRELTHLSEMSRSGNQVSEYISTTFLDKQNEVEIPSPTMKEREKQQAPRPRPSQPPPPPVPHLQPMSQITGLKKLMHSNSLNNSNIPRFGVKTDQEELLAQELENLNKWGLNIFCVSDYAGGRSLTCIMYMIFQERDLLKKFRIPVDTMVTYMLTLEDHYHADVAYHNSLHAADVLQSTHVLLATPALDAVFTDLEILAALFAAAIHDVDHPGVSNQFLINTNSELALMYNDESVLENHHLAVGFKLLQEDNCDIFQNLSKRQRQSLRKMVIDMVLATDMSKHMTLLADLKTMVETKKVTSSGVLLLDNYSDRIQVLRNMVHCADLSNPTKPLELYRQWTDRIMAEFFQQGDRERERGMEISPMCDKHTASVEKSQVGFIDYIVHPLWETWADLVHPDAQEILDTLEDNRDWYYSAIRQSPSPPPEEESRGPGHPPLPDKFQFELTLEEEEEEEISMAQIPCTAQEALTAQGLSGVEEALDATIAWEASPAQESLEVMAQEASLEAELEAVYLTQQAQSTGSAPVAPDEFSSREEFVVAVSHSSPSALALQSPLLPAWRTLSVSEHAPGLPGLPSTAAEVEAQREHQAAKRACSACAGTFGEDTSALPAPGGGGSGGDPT
Source text: (§1) Human PDE4A3 coding sequence (amino acids 2 to 825 from the sequence with accession number NP_001104779) was cloned into the baculovirus expression vector pFastBac (Invitrogen) engineered to include an N-terminal His6 affinity tag and a c-terminal FLAG affinity tag to aid in purification. The recombinant Bacmid was isolated and used to transfect insect cells to generate a viral stock. To generate cell paste for purification, insect cells were infected with the virus stock and cells were harvested 72 hours after infection. Insect cell paste was lysed and after centrifugation, the supernatant was batch bound to Ni-NTA agarose (GE Healthcare) and eluted with 250 mM imidazole. This eluate was diluted with FLAG buffer (50 mM Tris HCL pH 7.5, 100 mM NaCl, 5% Glycerol, 1 mM TCEP with protease inhibitors) and batch bound to ant-FLAG M2 agarose (Sigma) overnight at 4° C. The agarose was packed into a column, washed with buffer and eluted with buffer containing elute using 250 ug/ml Flag-peptide. Fractions were analyzed using SDS-PAGE Coomassie blue staining and pooled based on purity. Pooled fractions were chromatographed on a S200 120 ml column (GE Healthcare) in 50 mM Tris HCL pH 7.5, 150 mM NaCl, 10% Glycerol, 2 mM TCEP with protease inhibitors. PDE4A3 fractions were analyzed by SDS-PAGE Coomassie blue staining, pooled based on purity, dialyzed against 50 mM Tris HCL pH 7.5, 100 mM NaCl, 20% Glycerol, 2 mM TCEP, frozen and stored at −80° C.
(§2) The PDE4A3, PDE4B1, PDE4C1 and PDE4D3 assays use the Scintillation Proximity Assay (SPA) technology to measure the inhibition of human recombinant […], PDE4C1, and PDE4D3 enzyme activity by compounds in vitro. The PDE4A1, PDE4B3, PDE4C1, and PDE4D3 assays are run in parallel using identical parameters, except for the concentration of enzyme (80 pM PDE4A3, 40 pM PDE4B3, 40 pM PDE4C1 and 10 pM PDE4D). The assays are performed in a 384-well format with 50 uL assay buffer (50 mM TRIS pH7.5; 1.3 mM MgCl2; 0.01% Brij) containing enough PDE4A3, PDE4B1, PDE4C1, and PDE4D to convert ˜20% of substrate (1 μM cAMP consisting of 20 nM 3H-cAMP+[…] cold cAMP) and a range of inhibitors. Reactions are incubated for 30 min at 25° C. The addition of 20 uL of 8 mg/ml yitrium silicate SPA beads (Perkin Elmer) stops the reaction. The plates are sealed (TopSeal, Perkin Elmer) and the beads are allowed to settle for 8 hrs, after which they are read on the Trilux Microbeta overnight.

[2] = biological target: T2, Human PDE4B1 (Homo sapiens, UniProt Q07343, S133E/S654A/S659A/S661A); assay: PDE4B1 Scintillation Proximity Assay (SPA), inhibition of enzyme activity; conditions: geometric mean of 2-7 determinations unless otherwise indicated (b: ≥8 determinations; c: single determination); 1 μM cAMP, 30 min at 25° C.; read-out: Human PDE4B FL; IC50
T2 construct: His6 (N); thrombin cleavage site (N); made in house; host or cells: insect cells (baculovirus, pFastBac)
T2 sequence (Q07343 122-736 S133E/S654A/S659A/S661A): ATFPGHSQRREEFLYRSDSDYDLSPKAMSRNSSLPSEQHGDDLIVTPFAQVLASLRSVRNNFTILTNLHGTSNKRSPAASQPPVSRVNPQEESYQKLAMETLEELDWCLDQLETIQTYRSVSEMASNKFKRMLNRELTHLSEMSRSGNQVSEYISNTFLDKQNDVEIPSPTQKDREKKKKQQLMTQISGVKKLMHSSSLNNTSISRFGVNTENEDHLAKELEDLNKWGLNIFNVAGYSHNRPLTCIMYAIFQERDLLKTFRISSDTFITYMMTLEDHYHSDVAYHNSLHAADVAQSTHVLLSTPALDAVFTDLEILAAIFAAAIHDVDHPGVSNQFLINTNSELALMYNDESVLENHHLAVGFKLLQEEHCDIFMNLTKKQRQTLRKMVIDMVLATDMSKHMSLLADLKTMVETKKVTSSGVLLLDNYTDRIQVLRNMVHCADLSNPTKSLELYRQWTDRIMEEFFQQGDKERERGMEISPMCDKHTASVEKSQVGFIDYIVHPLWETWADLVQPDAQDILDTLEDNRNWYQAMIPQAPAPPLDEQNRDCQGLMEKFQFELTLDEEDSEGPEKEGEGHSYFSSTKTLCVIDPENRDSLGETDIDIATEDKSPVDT
Experimental: The recombinant Bacmid was isolated and used to transfect insect cells to generate a viral stock. To generate cell paste for purification, insect cells were infected with the virus stock and cells were harvested 72 hours after infection as described in Seeger, T. F. et al., Brain Research 985 (2003) 113-126. Insect cell paste was lysed and after centrifugation, the supernatant was chromatographed on Ni-NTA agarose (Qiagen) as described in Seeger, T. F. et al., Brain Research 985 (2003) 113-126. Ni-NTA agarose eluting fractions containing PDE4 were pooled, diluted with Q buffer A (20 mM Tris HCl pH 8, 5% glycerol, 1 mM TCEP) to reduce NaCl to ˜100 mM and loaded on a Source 15Q (GE Healthcare) column. After washing with Q buffer A/10% buffer B to baseline, PDE4D was eluted with a gradient from 10% to 60% of Buffer B (20 mM Tris HCl pH 8, 1 M NaCl, 5% glycerol, 1 mM TCEP). PDE4D fractions were analyzed by SDS-PAGE Coomassie blue staining, pooled based on purity, frozen and stored at −80° C.
as §2

[3] = biological target: T3, Human PDE4C1 (Homo sapiens, UniProt Q08493); assay: PDE4C1 Scintillation Proximity Assay (SPA), inhibition of enzyme activity; conditions: geometric mean of 2-7 determinations unless otherwise indicated (b: ≥8 determinations; c: single determination), 1 μM cAMP, 30 min at 25° C., read-out: Human PDE4C FL
T3 construct: His6 (N); FLAG (C); made in house; host or cells: insect cells (baculovirus, pFastBac)
T3 sequence (Q08493 2-712): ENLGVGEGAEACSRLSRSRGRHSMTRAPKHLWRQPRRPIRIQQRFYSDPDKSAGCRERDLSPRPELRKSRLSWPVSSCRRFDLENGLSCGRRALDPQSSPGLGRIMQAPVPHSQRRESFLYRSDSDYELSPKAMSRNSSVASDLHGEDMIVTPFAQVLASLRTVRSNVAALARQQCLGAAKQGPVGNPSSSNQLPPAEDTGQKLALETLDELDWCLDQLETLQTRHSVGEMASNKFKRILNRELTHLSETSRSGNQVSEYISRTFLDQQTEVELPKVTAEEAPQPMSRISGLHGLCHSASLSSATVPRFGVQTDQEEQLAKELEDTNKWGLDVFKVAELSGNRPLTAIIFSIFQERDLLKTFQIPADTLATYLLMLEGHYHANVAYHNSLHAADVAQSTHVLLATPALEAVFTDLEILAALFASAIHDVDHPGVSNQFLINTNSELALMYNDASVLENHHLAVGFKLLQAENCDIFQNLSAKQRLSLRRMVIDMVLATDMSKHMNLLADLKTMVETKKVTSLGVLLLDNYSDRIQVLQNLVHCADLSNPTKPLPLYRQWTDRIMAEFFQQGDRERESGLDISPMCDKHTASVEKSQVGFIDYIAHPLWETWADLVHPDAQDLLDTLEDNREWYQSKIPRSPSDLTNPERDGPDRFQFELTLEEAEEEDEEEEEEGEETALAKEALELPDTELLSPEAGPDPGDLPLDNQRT
Experimental: as §1, with “The” for “Human PDE4A3 coding sequence (amino acids 2 to 825 from the sequence with accession number NP_001104779) was cloned into the baculovirus expression vector pFastBac (Invitrogen) engineered to include an N-terminal His6 affinity tag and a c-terminal FLAG affinity tag to aid in purification. The”, “PDE4C1” for “PDE4A3”
as §2

[4] = biological target: T4, human PDE4D3 (Homo sapiens, UniProt Q08499); assay: PDE4D3 Scintillation Proximity Assay (SPA), inhibition of enzyme activity; conditions: geometric mean of 2-7 determinations unless otherwise indicated (b: ≥8 determinations; c: single determination); 1 μM cAMP, 30 min at 25° C.; read-out: Human PDE4D FL; IC50
T4 construct: His6 (C); made in house; host or cells: insect cells (baculovirus, pFastBac)
T4 sequence (Q08499 186-808): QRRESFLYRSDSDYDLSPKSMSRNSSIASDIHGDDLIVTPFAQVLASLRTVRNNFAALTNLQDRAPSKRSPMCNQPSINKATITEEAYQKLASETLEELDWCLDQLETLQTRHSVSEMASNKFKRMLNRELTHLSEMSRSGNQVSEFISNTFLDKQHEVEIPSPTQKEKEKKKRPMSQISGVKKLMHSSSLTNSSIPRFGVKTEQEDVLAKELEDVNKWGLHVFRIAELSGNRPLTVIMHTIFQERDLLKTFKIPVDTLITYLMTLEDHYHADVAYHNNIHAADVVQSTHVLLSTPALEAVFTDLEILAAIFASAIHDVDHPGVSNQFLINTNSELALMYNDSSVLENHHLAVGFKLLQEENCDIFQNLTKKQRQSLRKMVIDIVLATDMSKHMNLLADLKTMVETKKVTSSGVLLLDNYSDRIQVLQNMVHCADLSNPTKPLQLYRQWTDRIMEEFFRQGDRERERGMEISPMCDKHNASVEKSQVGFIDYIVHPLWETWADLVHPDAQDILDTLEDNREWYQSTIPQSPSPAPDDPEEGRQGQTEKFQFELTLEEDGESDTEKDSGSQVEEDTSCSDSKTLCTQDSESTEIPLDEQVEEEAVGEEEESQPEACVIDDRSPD
Experimental: The recombinant Bacmid was isolated and used to transfect insect cells to generate a viral stock. To generate cell paste for purification, insect cells were infected and cells were harvested 72 hours after infection. Insect cell paste was lysed and after centrifugation, the supernatant was chromatographed on Ni-NTA agarose (Qiagen) as described in Seeger, T. F. et al., Brain Research 985 (2003) 113-126. Ni-NTA agarose eluting fractions containing PDE4 were pooled, diluted with Q Buffer A (50 mM Tris HCl pH 8, 4% glycerol, 100 mM NaCl, 1 mM TCEP, Protease inhibitors EDTA-free (Roche)) to reduce NaCl to ˜200 mM, and loaded on a Q Sepharose (GE Healthcare) column. After washing with Q buffer A to baseline, PDE4D was eluted with a gradient from 10% to 60% of Buffer B (50 mM Tris HCl pH 8, 1 M NaCl, 4% glycerol, 1 mM TCEP). PDE4D fractions were analyzed by SDS-PAGE Coomassie blue staining, pooled based on purity, frozen and stored at −80° C.
as §2

## CCNC(=O)c1nn2cccnc2c1-c1cc(F)c(C#N)cc1C [Example 16, 3-(4-cyano-5-fluoro-2-methylphenyl)-N-ethylpyrazolo[1,5-a]pyrimidine-2-carboxamide]
[1]
  IC50: 0.0159 µM
[2]
  IC50: 0.0543 µM
[3]
  IC50: 0.0798 µM
[4]
  IC50: 2.51 µM

## Cc1ccc(-c2c(C(=O)NC3CC3)nn3cc(F)cnc23)cc1F [Example 63, N-cyclopropyl-6-fluoro-3-(3-fluoro-4-methylphenyl)pyrazolo[1,5-a]pyrimidine-2-carboxamide]
[1]
  IC50: 0.00402 µM
[2]
  IC50: 0.0132 µM
[3]
  IC50: 0.0095 µM
[4]
  IC50: 0.459 µM

## N#Cc1cc(F)c(-c2c(C(=O)NC3CC3)nn3cccnc23)cc1F [Example 45, 3-(4-cyano-2,5-difluorophenyl)-N-cyclopropylpyrazolo[1,5-a]pyrimidine-2-carboxamide]
[1]
  IC50: 0.022 µM
[2]
  IC50: 0.051 µM
[3]
  IC50: 0.0421 µM
[4]
  IC50: 1.32 µM

## CCCNC(=O)c1nn2cccnc2c1-c1ccc(Cl)cc1 [Example 2, 3-(4-Chlorophenyl)-N-propylpyrazolo[1,5-a]pyrimidine-2-carboxamide]
[1]
  IC50: 0.0614 µM
[2]
  IC50: 0.0346 µM
[3]
  IC50: 0.0606 µM
[4]
  IC50: 4.15 µM

## O=C(NC1CC1)c1nn2cccnc2c1-c1ccc(Cl)cc1F [Example 14, 3-(4-chloro-2-fluorophenyl)-N-cyclopropylpyrazolo[1,5-a]pyrimidine-2-carboxamide]
[1]
  IC50: 0.0518 µM
[2]
  IC50: 0.179 µM
[3]
  IC50: 0.0833 µM
[4]
  IC50: > 16.7 µM

## Cc1cc(C#N)c(F)cc1-c1c(C(=O)NC2CC2)nn2cc(F)cnc12 [Example 67, 3-(4-cyano-5-fluoro-2-methylphenyl)-N-cyclopropyl-6-fluoropyrazolo[1,5-a]pyrimidine-2-carboxamide]
[1]
  IC50: 0.00346 µM
[2]
  IC50: 0.0164 µM
[3]
  IC50: 0.0268 µM
[4]
  IC50: 0.111 µM

## O=C(c1nn2cccnc2c1-c1cccc(Cl)c1)N1CCC1 [Example 48, azetidin-1-yl[3-(3-chlorophenyl)pyrazolo[1,5-a]pyrimidin-2-yl]methanone]
[1]
  IC50: 0.167 µM
[2]
  IC50: 0.236 µM
[3]
  IC50: 0.0764 µM
[4]
  IC50: > 16 µM

## N#Cc1c(F)cc(-c2c(C(=O)N3CCC3)nn3cccnc23)cc1F [Example 62, 4-[2-(azetidin-1-ylcarbonyl)pyrazolo[1,5-a]pyrimidin-3-yl]-2,6-difluorobenzonitrile]
[1]
  IC50: 0.00433 µM
[2]
  IC50: 0.0173 µM
[3]
  IC50: 0.0378 µM
[4]
  IC50: 0.242 µM

## Cc1cc(Cl)ccc1-c1c(C(=O)NC2CC2)nn2cccnc12 [Example 6, 3-(4-Chloro-2-methylphenyl)-N-cyclopropylpyrazolo[1,5-a]pyrimidine-2-carboxamide]
[1]
  IC50: 0.0287 µM
[2]
  IC50: 0.0552 µM
[3]
  IC50: 0.066 µM
[4]
  IC50: > 10.4 µM

## CCCC(=O)Nc1nn2cccnc2c1-c1ccc(Cl)c(F)c1 [Example 4, N-[3-(4-Chloro-3-fluorophenyl)pyrazolo[1,5-a]pyrimidin-2-yl]butanamide]
[1]
  IC50: 0.553 µM
[2]
  IC50: 0.894 µM
[3]
  IC50: 1.54 µM
[4]
  IC50: > 30 µM

## O=C(NC1CC1)c1nn2cccnc2c1-c1ccc(Cl)cc1 [Example 10, 3-(4-chlorophenyl)-N-cyclopropylpyrazolo[1,5-a]pyrimidine-2-carboxamide]
[1]
  IC50: 0.0253 µM
[2]
  IC50: 0.0969 µM
[3]
  IC50: 0.0429 µM
[4]
  IC50: 5.84 µM

## O=C(c1nn2cccnc2c1-c1ccc(Cl)c(F)c1)N1CCC1 [Example 12, azetidin-1-yl[3-(4-chloro-3-fluorophenyl)pyrazolo[1,5-a]pyrimidin-2-yl]methanone]
[1]
  IC50: 0.022 µM
[2]
  IC50: 0.00606 µM
[3]
  IC50: 0.048 µM
[4]
  IC50: 0.993 µM

## O=C(c1nn2cc(F)cnc2c1-c1ccc(Cl)c(F)c1)N1CCC1 [Example 66, azetidin-1-yl[3-(4-chloro-3-fluorophenyl)-6-fluoropyrazolo[1,5-a]pyrimidin-2-yl]methanone]
[1]
  IC50: 0.002 µM
[2]
  IC50: 0.007 µM
[3]
  IC50: 0.009 µM
[4]
  IC50: 0.079 µM

## O=C(NC1CC1)c1nn2cc(F)cnc2c1-c1ccnc(OC(F)F)c1 [Example 56, N-cyclopropyl-3-[2-(difluoromethoxy)pyridin-4-yl]-6-fluoropyrazolo[1,5-a]pyrimidine-2-carboxamide]
[1]
  IC50: 0.00392 µM
[2]
  IC50: 0.0223 µM
[3]
  IC50: 0.0194 µM
[4]
  IC50: 0.0784 µM

## O=C(NC1CC1)c1nn2cc(F)cnc2c1-c1ccc(Cl)cc1 [Example 7, 3-(4-Chlorophenyl)-N-cyclopropyl-6-fluoropyrazolo[1,5-a]pyrimidine-2-carboxamide]
[1]
  IC50: 0.00877 µM
[2]
  IC50: 0.0161 µM
[3]
  IC50: 0.0234 µM
[4]
  IC50: 1.08 µM

## O=C(N[C@@H]1C[C@@H]1F)c1nn2cccnc2c1-c1ccc(Cl)c(F)c1 [Example 28, 3-(4-chloro-3-fluorophenyl)-N-[(1R,2S)-2-fluorocyclopropyl]pyrazolo[1,5-a]pyrimidine-2-carboxamide]
[1]
  IC50: 0.0144 µM
[2]
  IC50: 0.0037 µM
[3]
  IC50: 0.0199 µM
[4]
  IC50: 0.14 µM
